SMILES strings stand for the structures.

This is an account of results in ChEMBL document CHEMBL5303573, “Mapping human microbiome drug metabolism by gut bacteria and their genes” (Nature, 2019).

The first data set concerns the target T1, SGNH hydrolase-type esterase domain-containing protein (Phocaeicola dorei, UniProt B6W1J1).
T1 sequence (B6W1J1 whole entry): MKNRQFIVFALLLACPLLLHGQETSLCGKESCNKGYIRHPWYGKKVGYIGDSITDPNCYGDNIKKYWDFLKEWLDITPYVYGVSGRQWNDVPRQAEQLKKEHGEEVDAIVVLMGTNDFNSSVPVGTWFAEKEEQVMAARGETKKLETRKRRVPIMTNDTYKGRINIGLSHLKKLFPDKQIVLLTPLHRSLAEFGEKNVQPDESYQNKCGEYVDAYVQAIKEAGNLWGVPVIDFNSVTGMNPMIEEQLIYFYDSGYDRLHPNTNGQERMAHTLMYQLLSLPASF
Put plainly: (§1) The drug is tested on Bacteroides dorei strain: DSM17855 for biotransformation. The drug concentrations were measured before and after a 12-h incubation by liquid-chromatography-coupled mass spectrometry (LC–MS). Set-up: dose 2 uM. Conditions: 2 µM. Format: ADME.
With `O=C(O)c1cc(/N=N/c2ccc(S(=O)(=O)Nc3ccccn3)cc2)ccc1O` [SULFASALAZINE], the “Bacterial Biotransformation” value is “Compound NOT metabolized”.

For `CC(=O)Oc1ccc(C(c2ccc(OC(C)=O)cc2)c2ccccn2)cc1` [BISACODYL], the “Bacterial Biotransformation” value is reported as “Compound metabolized”.

Consider `CC(=O)SCC(Cc1ccccc1)C(=O)NCC(=O)OCc1ccccc1` (stereo not given) [RACECADOTRIL], for which the “Bacterial Biotransformation” value was “Compound NOT metabolized”.

On to `CCOC(=O)C1=C(C)NC(C)=C(C(=O)OC)C1c1cccc([N+](=O)[O-])c1` (stereo not given) [NITRENDIPINE], for which the “Bacterial Biotransformation” value is listed as “Compound NOT metabolized”.

For `C#C[C@]1(O)CC[C@H]2[C@@H]3CCC4=Cc5oncc5C[C@]4(C)[C@H]3CC[C@@]21C` [DANAZOL], the “Bacterial Biotransformation” value is reported as “Compound NOT metabolized”.

In the next data set the target is T2, Steroid 5-alpha reductase C-terminal domain-containing protein (Phocaeicola dorei, UniProt B6W0N3).
T2 sequence (B6W0N3 whole entry): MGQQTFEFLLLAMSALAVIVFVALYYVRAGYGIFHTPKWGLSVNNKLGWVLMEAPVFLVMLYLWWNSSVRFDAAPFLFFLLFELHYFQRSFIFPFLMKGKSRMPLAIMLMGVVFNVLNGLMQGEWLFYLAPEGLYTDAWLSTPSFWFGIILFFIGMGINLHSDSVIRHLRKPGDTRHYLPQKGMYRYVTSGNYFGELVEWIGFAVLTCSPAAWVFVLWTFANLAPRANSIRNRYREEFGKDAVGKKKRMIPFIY
The description is as §1. In kind it is ADME. Conditions: 2 µM. Set-up: dose 2 uM.
As to `O=C(O)c1cc(/N=N/c2ccc(S(=O)(=O)Nc3ccccn3)cc2)ccc1O` [SULFASALAZINE], the “Bacterial Biotransformation” value is reported as “Compound NOT metabolized”.

On to `CC(=O)Oc1ccc(C(c2ccc(OC(C)=O)cc2)c2ccccn2)cc1` [BISACODYL], for which the “Bacterial Biotransformation” value is listed as “Compound NOT metabolized”.

`CC(=O)SCC(Cc1ccccc1)C(=O)NCC(=O)OCc1ccccc1` (stereo not given) [RACECADOTRIL]: the “Bacterial Biotransformation” value is “Compound NOT metabolized”.

As to `CCOC(=O)C1=C(C)NC(C)=C(C(=O)OC)C1c1cccc([N+](=O)[O-])c1` (stereo not given) [NITRENDIPINE], the “Bacterial Biotransformation” value is recorded as “Compound NOT metabolized”.

As to `C#C[C@]1(O)CC[C@H]2[C@@H]3CCC4=Cc5oncc5C[C@]4(C)[C@H]3CC[C@@]21C` [DANAZOL], the “Bacterial Biotransformation” value is on record as “Compound NOT metabolized”.

For another data set, the target named is T3, Lipoprotein (Bacteroides thetaiotaomicron, UniProt Q8A343).
T3 sequence (Q8A343 whole entry): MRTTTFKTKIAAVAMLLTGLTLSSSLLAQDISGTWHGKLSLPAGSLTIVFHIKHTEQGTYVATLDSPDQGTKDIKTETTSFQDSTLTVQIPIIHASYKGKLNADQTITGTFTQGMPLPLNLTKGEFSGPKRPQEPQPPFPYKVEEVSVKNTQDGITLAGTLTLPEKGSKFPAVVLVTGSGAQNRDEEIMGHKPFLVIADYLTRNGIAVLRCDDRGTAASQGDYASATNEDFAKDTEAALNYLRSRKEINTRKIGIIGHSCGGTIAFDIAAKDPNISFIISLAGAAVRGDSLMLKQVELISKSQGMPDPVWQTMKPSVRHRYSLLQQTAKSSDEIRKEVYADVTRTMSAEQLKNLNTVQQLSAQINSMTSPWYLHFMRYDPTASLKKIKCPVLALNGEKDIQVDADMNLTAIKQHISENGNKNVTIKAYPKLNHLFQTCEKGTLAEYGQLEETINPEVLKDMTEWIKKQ
Put plainly: (§2) The drug is tested on Bacteroides thetaiotaomicron strain: VPI-5482 for biotransformation. The drug concentrations were measured before and after a 12-h incubation by liquid-chromatography-coupled mass spectrometry (LC–MS). In kind it is ADME. Details: dose 2 uM. The conditions noted are these: 2 µM.
With `O=C(O)c1cc(/N=N/c2ccc(S(=O)(=O)Nc3ccccn3)cc2)ccc1O` [SULFASALAZINE], the “Bacterial Biotransformation” value was “Compound NOT metabolized”.

`CC(=O)Oc1ccc(C(c2ccc(OC(C)=O)cc2)c2ccccn2)cc1` [BISACODYL]: the “Bacterial Biotransformation” value was “Compound NOT metabolized”.

As to `CC(=O)SCC(Cc1ccccc1)C(=O)NCC(=O)OCc1ccccc1` (stereo not given) [RACECADOTRIL], the “Bacterial Biotransformation” value is “Compound metabolized”.

Turning to `C#C[C@]1(O)CC[C@H]2[C@@H]3CCC4=Cc5oncc5C[C@]4(C)[C@H]3CC[C@@]21C` [DANAZOL], the “Bacterial Biotransformation” value is “Compound NOT metabolized”.

Another data set concerns the target T4, Acylhydrolase (Bacteroides thetaiotaomicron, UniProt Q8AA96).
T4 sequence (Q8AA96 whole entry): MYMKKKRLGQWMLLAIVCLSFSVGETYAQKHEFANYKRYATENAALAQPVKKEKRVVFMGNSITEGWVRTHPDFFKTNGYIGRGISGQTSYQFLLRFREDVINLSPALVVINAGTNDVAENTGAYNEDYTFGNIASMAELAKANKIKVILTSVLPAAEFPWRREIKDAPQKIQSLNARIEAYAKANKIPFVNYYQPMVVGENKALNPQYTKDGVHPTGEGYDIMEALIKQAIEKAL
The data set is described as §2. In kind it is ADME. Set-up: dose 2 uM. The conditions noted are these: 2 µM.
In the case of `CC(=O)Oc1ccc(C(c2ccc(OC(C)=O)cc2)c2ccccn2)cc1` [BISACODYL], the “Bacterial Biotransformation” value is listed as “Compound metabolized”.

In the case of `CC(=O)SCC(Cc1ccccc1)C(=O)NCC(=O)OCc1ccccc1` (stereo not given) [RACECADOTRIL], the “Bacterial Biotransformation” value is listed as “Compound metabolized”.

In the case of `CCOC(=O)C1=C(C)NC(C)=C(C(=O)OC)C1c1cccc([N+](=O)[O-])c1` (stereo not given) [NITRENDIPINE], the “Bacterial Biotransformation” value is “Compound NOT metabolized”.

With `C#C[C@]1(O)CC[C@H]2[C@@H]3CCC4=Cc5oncc5C[C@]4(C)[C@H]3CC[C@@]21C` [DANAZOL], the “Bacterial Biotransformation” value is on record as “Compound metabolized”.

The target of a further data set is T5, Xylanase (Bacteroides thetaiotaomicron, UniProt Q8A8H5).
T5 sequence (Q8A8H5 whole entry): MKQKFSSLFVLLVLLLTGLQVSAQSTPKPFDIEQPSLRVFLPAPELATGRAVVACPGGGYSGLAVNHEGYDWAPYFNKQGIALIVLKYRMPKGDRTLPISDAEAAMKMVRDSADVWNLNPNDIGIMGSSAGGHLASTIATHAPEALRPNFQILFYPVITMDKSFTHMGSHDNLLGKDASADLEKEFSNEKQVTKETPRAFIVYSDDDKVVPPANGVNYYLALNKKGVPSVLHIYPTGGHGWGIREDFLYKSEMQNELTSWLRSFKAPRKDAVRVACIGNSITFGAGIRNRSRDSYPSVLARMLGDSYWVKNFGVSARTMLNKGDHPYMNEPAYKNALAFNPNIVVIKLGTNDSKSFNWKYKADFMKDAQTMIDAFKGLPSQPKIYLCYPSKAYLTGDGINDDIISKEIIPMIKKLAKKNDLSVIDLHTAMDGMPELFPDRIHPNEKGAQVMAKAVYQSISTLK
The data set is described as §2. In kind it is ADME. Set-up: dose 2 uM. Conditions: 2 µM.
In the case of `CC(=O)Oc1ccc(C(c2ccc(OC(C)=O)cc2)c2ccccn2)cc1` [BISACODYL], the “Bacterial Biotransformation” value was “Compound metabolized”.

`CC(=O)SCC(Cc1ccccc1)C(=O)NCC(=O)OCc1ccccc1` (stereo not given) [RACECADOTRIL]: the “Bacterial Biotransformation” value is “Compound metabolized”.

In the case of `CCOC(=O)C1=C(C)NC(C)=C(C(=O)OC)C1c1cccc([N+](=O)[O-])c1` (stereo not given) [NITRENDIPINE], the “Bacterial Biotransformation” value is reported as “Compound metabolized”.

Turning to `C#C[C@]1(O)CC[C@H]2[C@@H]3CCC4=Cc5oncc5C[C@]4(C)[C@H]3CC[C@@]21C` [DANAZOL], the “Bacterial Biotransformation” value is “Compound NOT metabolized”.

In the next data set the target is T6, Lipolytic enzyme, G-D-S-L family (Bacteroides thetaiotaomicron, UniProt Q8A0C5).
T6 sequence (Q8A0C5 whole entry): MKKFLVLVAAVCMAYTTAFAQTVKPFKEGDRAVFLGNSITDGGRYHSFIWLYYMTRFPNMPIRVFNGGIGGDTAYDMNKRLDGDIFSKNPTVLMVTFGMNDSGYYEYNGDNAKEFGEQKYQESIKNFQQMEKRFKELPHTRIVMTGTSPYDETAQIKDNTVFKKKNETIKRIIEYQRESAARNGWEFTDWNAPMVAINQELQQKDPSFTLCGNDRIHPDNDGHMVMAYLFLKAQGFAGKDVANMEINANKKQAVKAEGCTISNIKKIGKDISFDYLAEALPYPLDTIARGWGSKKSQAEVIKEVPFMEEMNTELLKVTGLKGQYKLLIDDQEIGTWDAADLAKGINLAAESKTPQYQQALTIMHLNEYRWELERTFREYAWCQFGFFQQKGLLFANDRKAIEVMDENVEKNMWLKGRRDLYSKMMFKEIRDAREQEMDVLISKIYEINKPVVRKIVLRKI
The description is as §2. In kind it is ADME. Set-up: dose 2 uM. The conditions noted are these: 2 µM.
Turning to `CC(=O)Oc1ccc(C(c2ccc(OC(C)=O)cc2)c2ccccn2)cc1` [BISACODYL], the “Bacterial Biotransformation” value is recorded as “Compound metabolized”.

In the case of `CC(=O)SCC(Cc1ccccc1)C(=O)NCC(=O)OCc1ccccc1` (stereo not given) [RACECADOTRIL], the “Bacterial Biotransformation” value is “Compound metabolized”.

As for `CCOC(=O)C1=C(C)NC(C)=C(C(=O)OC)C1c1cccc([N+](=O)[O-])c1` (stereo not given) [NITRENDIPINE], the “Bacterial Biotransformation” value is “Compound NOT metabolized”.

As for `C#C[C@]1(O)CC[C@H]2[C@@H]3CCC4=Cc5oncc5C[C@]4(C)[C@H]3CC[C@@]21C` [DANAZOL], the “Bacterial Biotransformation” value is listed as “Compound NOT metabolized”.

Another data set has as its target T7, NADH dehydrogenase/NAD(P)H nitroreductase (Bacteroides thetaiotaomicron, UniProt Q8A8L9).
T7 sequence (Q8A8L9 whole entry): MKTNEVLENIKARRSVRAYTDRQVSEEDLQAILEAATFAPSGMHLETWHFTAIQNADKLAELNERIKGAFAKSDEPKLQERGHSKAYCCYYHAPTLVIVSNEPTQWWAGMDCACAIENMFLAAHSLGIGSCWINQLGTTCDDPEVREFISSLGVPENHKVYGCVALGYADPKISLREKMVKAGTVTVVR
The description is as §2. Format: ADME. Set-up: dose 2 uM. The conditions noted are these: 2 µM.
In the case of `O=C(O)c1cc(/N=N/c2ccc(S(=O)(=O)Nc3ccccn3)cc2)ccc1O` [SULFASALAZINE], the “Bacterial Biotransformation” value was “Compound NOT metabolized”.

As for `CC(=O)Oc1ccc(C(c2ccc(OC(C)=O)cc2)c2ccccn2)cc1` [BISACODYL], the “Bacterial Biotransformation” value is recorded as “Compound NOT metabolized”.

On to `CC(=O)SCC(Cc1ccccc1)C(=O)NCC(=O)OCc1ccccc1` (stereo not given) [RACECADOTRIL], for which the “Bacterial Biotransformation” value is “Compound NOT metabolized”.

With `C#C[C@]1(O)CC[C@H]2[C@@H]3CCC4=Cc5oncc5C[C@]4(C)[C@H]3CC[C@@]21C` [DANAZOL], the “Bacterial Biotransformation” value is on record as “Compound NOT metabolized”.

A further data set addresses T8, Nitroreductase-like protein (Bacteroides thetaiotaomicron, UniProt Q8AB93).
T8 sequence (Q8AB93 whole entry): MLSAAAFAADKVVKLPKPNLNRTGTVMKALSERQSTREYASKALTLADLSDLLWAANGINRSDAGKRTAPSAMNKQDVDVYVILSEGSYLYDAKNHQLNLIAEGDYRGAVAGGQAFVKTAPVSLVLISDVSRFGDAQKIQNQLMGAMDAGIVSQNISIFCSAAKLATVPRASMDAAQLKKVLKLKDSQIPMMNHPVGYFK
Described as §2. Format: ADME. Set-up: dose 2 uM. Conditions: 2 µM.
With `O=C(O)c1cc(/N=N/c2ccc(S(=O)(=O)Nc3ccccn3)cc2)ccc1O` [SULFASALAZINE], the “Bacterial Biotransformation” value is “Compound metabolized”.

On to `CC(=O)Oc1ccc(C(c2ccc(OC(C)=O)cc2)c2ccccn2)cc1` [BISACODYL], for which the “Bacterial Biotransformation” value was “Compound NOT metabolized”.

For `CC(=O)SCC(Cc1ccccc1)C(=O)NCC(=O)OCc1ccccc1` (stereo not given) [RACECADOTRIL], the “Bacterial Biotransformation” value is “Compound NOT metabolized”.

`CCOC(=O)C1=C(C)NC(C)=C(C(=O)OC)C1c1cccc([N+](=O)[O-])c1` (stereo not given) [NITRENDIPINE]: the “Bacterial Biotransformation” value is on record as “Compound metabolized”.

As for `C#C[C@]1(O)CC[C@H]2[C@@H]3CCC4=Cc5oncc5C[C@]4(C)[C@H]3CC[C@@]21C` [DANAZOL], the “Bacterial Biotransformation” value is “Compound NOT metabolized”.
